pEC50: −log10 of the molar value.
Columns and labels:
luciferase reporter ZIKV = test: luciferase-based ZIKV reporter assay in Huh7 cells; format: cell-based; settings: Zika virus, Huh-7, 72 h, read-out: ZIKV Reporter Assay Inhibition (%) at 10 µM
Experimental: (§1) In the current study, we continued to use our previously reported luciferase-based ZIKV reporter assay as a primary antiviral screening, by which newly synthesized compounds were tested (at 10 µM) along with NITD008 (Figure 1, at 1 µM), a flavivirus RNA-dependent RNA polymerase (RdRp) inhibitor, and NSC 12155 (Figure 1, at 10 µM), a flavivirus NS5 methyltransferase (MTase) inhibitor, as reference compounds (Table 1). […] For active compounds (>60% titer-reduction), dose-response experiments were performed to determine EC50 (half maximal effective concentration, a concentration that is needed to cause half of the maximum possible pharmacological effect) and CC50 (half cytotoxic concentration, a concentration that is required to reduce cell viability by 50%) values. For selected compounds, EC50 values in the reporter assay were also measured.
(§2) The ZIKV reporter assay and titer-reduction assay were performed as previously reported. Briefly, Huh7 cells (1.5 × 10^4) were seeded in a 96-well plate and inoculated with a luciferase reporter ZIKV (MOI=0.2). After two hours, the cells were treated with medium containing the compound (10 µM). After 3 days post-infection, the cells were lysed, the Nanoluc signal was detected using the Nano-Glo® luciferase assay (Promega), then measured using a Neo 2 plate reader (BioTek, Winooski, VT, USA). For titer-reduction assays, 1.5 × 10^5 Huh7 cell were seeded in a 24-well plate. Next day, the cells were inoculated with ZIKV for two hours. The inoculum was replaced with compound-containing medium (8.5 µM) and incubated for 3 days. Supernatants were collected and viral titers were estimated by plaque assay.

[1] = Cell viability (CC50) assay, MTS-based; settings: human, 3 days; for viability at 3 days, 10 µM: 10 µM compound, Huh7 cells, read-out: ZIKV Reporter Assay Viability (%) at 10 µM; for CC50 at 3 days: non-infected Huh7 cells, read-out: CC50
Experimental: as §1
The cell viability assay was performed in Huh7 cells as previously reported. Briefly, non-infected Huh7 cells were treated with the testing compounds for 3 days. Viability was measured by absorbance at […] using the MTS-based tetrazolium reduction CellTiter 96 Aqueous Non-Radioactive cell proliferation assay (Promega).

ZIKV = ZIKV titer reduction assay (plaque assay of supernatants) in Huh7 cells; format: cell-based; settings: Zika virus, Huh7 cells; for inhibition at 8.5 µM: Huh-7, 72 h, 8.5 µM compound, 3 days, read-out: Titer Reduction Assay % at 8.5 µM; for pEC50: Huh-7, read-out: Titer Reduction Assay EC50
Experimental: as §1, §2

Q: Which inhibition at 10 µM (luciferase reporter ZIKV) does the source give for Cc1ccccc1OCc1nn(Cc2ccc([N+](=O)[O-])cc2)c2ncnc(N)c12 [Compound 26, 1-(4-Nitrobenzyl)-3-((o-tolyloxy)methyl)-1H-pyrazolo[3,4-d]pyrimidin-4-amine] here?
A: 60%

Q: And the viability at 3 days, 10 µM [1]?
A: 77%

Q: Which inhibition at 8.5 µM (ZIKV) does the source give for Nc1ccc(Cn2nc(COc3ccccc3)c3c(N)ncnc32)cn1 [Compound 23, 1-((6-Aminopyridin-3-yl)methyl)-3-(phenoxymethyl)-1H-pyrazolo[3,4-d]pyrimidin-4-amine] here?
A: 20%

Q: What about the inhibition at 10 µM (luciferase reporter ZIKV) of the same compound?
A: 49%

Q: And the viability at 3 days, 10 µM [1]?
A: 82%

Q: With Nc1ncnc2c1c(CNc1ccccc1)cn2Cc1ccc([N+](=O)[O-])cc1 [Compound 4, 7-(4-Nitrobenzyl)-5-((phenylamino)methyl)-7H-pyrrolo[2,3-d]pyrimidin-4-amine] as the compound, how does the inhibition at 10 µM (luciferase reporter ZIKV) read?
A: 91%

Q: And the viability at 3 days, 10 µM [1]?
A: 40%

Q: With NC(=O)c1ccc(Cn2nc(COc3ccccc3)c3c(N)ncnc32)cc1 [Compound 19, 4-((4-Amino-3-(phenoxymethyl)-1H-pyrazolo[3,4-d]pyrimidin-1-yl)methyl)benzamide] as the compound, how does the inhibition at 8.5 µM (ZIKV) read?
A: 22%

Q: What about the inhibition at 10 µM (luciferase reporter ZIKV) of the same compound?
A: 63%

Q: What about the viability at 3 days, 10 µM [1] of the same compound?
A: 77%

Q: Which inhibition at 8.5 µM (ZIKV) does the source give for Cc1ccc(OCc2nn(Cc3ccc([N+](=O)[O-])cc3)c3ncnc(N)c23)cc1 [Compound 28, 1-(4-Nitrobenzyl)-3-((p-tolyloxy)methyl)-1H-pyrazolo[3,4-d]pyrimidin-4-amine] here?
A: 34%

Q: And the inhibition at 10 µM (luciferase reporter ZIKV)?
A: 65%

Q: What about the viability at 3 days, 10 µM [1] of the same compound?
A: 85%

Q: With Nc1ncnc2c1c(COc1ccc(Cl)cc1)nn2Cc1ccc([N+](=O)[O-])cc1 [Compound 31, 3-((4-Chlorophenoxy)methyl)-1-(4-nitrobenzyl)-1H-pyrazolo[3,4-d]pyrimidin-4-amine] as the compound, how does the inhibition at 8.5 µM (ZIKV) read?
A: 40%

Q: What about the inhibition at 10 µM (luciferase reporter ZIKV) of the same compound?
A: 60%

Q: What about the viability at 3 days, 10 µM [1] of the same compound?
A: 94%

Q: For Nc1ncnc2c1c(COc1ccccc1)nn2Cc1ccc(C(F)(F)F)cc1 [Compound 13, 3-(Phenoxymethyl)-1-(4-(trifluoromethyl)benzyl)-1H-pyrazolo[3,4-d]pyrimidin-4-amine], which inhibition at 8.5 µM (ZIKV) is on record?
A: 73%

Q: And the pEC50 (ZIKV)?
A: 5.19

Q: And the inhibition at 10 µM (luciferase reporter ZIKV)?
A: 68%

Q: What about the viability at 3 days, 10 µM [1] of the same compound?
A: 86%

Q: And the CC50 at 3 days [1]?
A: > 100 µM

Q: For Nc1ncnc2c1c(COc1ccccc1)nn2Cc1ccccc1[N+](=O)[O-] [Compound 8, 1-(2-Nitrobenzyl)-3-(phenoxymethyl)-1H-pyrazolo[3,4-d]pyrimidin-4-amine], which inhibition at 10 µM (luciferase reporter ZIKV) is on record?
A: 9%

Q: What about the viability at 3 days, 10 µM [1] of the same compound?
A: 103%

Q: Which inhibition at 10 µM (luciferase reporter ZIKV) does the source give for Nc1ncnc2c1c(COc1ccccc1)nn2Cc1ccnc(Cl)c1 [Compound 20, 1-((2-Chloropyridin-4-yl)methyl)-3-(phenoxymethyl)-1H-pyrazolo[3,4-d]pyrimidin-4-amine] here?
A: 88%

Q: And the viability at 3 days, 10 µM [1]?
A: 39%

Q: With Cc1cccc(OCc2nn(Cc3ccc([N+](=O)[O-])cc3)c3ncnc(N)c23)c1 [Compound 27, 1-(4-Nitrobenzyl)-3-((m-tolyloxy)methyl)-1H-pyrazolo[3,4-d]pyrimidin-4-amine] as the compound, how does the inhibition at 8.5 µM (ZIKV) read?
A: 53%

Q: What about the inhibition at 10 µM (luciferase reporter ZIKV) of the same compound?
A: 71%

Q: And the viability at 3 days, 10 µM [1]?
A: 82%

Q: Which inhibition at 8.5 µM (ZIKV) does the source give for CS(=O)(=O)c1ccc(Cn2nc(COc3ccccc3)c3c(N)ncnc32)cc1 [Compound 14, 1-(4-(Methylsulfonyl)Benzyl)-3-(phenoxymethyl)-1H-pyrazolo[3,4-d]pyrimidin-4-amine] here?
A: 52%

Q: What about the inhibition at 10 µM (luciferase reporter ZIKV) of the same compound?
A: 58%

Q: What about the viability at 3 days, 10 µM [1] of the same compound?
A: 93%

Q: With Nc1ncnc2c1c(COc1ccccc1)cn2Cc1ccc([N+](=O)[O-])cc1 [Compound 5, 7-(4-Nitrobenzyl)-5-(phenoxymethyl)-7H-pyrrolo[2,3-d]pyrimidin-4-amine] as the compound, how does the inhibition at 8.5 µM (ZIKV) read?
A: 94%

Q: And the pEC50 (ZIKV)?
A: 5.37

Q: What about the inhibition at 10 µM (luciferase reporter ZIKV) of the same compound?
A: 62%

Q: And the viability at 3 days, 10 µM [1]?
A: 82%

Q: What about the CC50 at 3 days [1] of the same compound?
A: 58 µM

Q: For Nc1ncnc2c1c(COc1ccccc1)nn2Cc1ccccc1 [Compound 7, 1-Benzyl-3-(phenoxymethyl)-1H-pyrazolo[3,4-d]pyrimidin-4-amine], which inhibition at 10 µM (luciferase reporter ZIKV) is on record?
A: 0%

Q: What about the viability at 3 days, 10 µM [1] of the same compound?
A: 99%

Q: With Nc1ccccc1Cn1nc(COc2ccccc2)c2c(N)ncnc21 [Compound 10, 1-(2-Aminobenzyl)-3-(phenoxymethyl)-1H-pyrazolo[3,4-d]pyrimidin-4-amine] as the compound, how does the inhibition at 10 µM (luciferase reporter ZIKV) read?
A: 0%

Q: And the viability at 3 days, 10 µM [1]?
A: 99%

Q: What does the source list for COC(=O)c1cccc(Cn2nc(COc3ccccc3)c3c(N)ncnc32)c1 [Compound 17, Methyl 3-((4-Amino-3-(phenoxymethyl)-1H-pyrazolo[3,4-d]pyrimidin-1-yl)methyl)benzoate]?
A: inhibition at 10 µM (luciferase reporter ZIKV): 88%; viability at 3 days, 10 µM [1]: 38%

Q: For CC(C)(C)OC(=O)Nc1ccc(Cn2nc(COc3ccccc3)c3c(N)ncnc32)cn1 [Compound 25, Tert-Butyl (5-((4-Amino-3-(phenoxymethyl)-1H-pyrazolo[3,4-d]pyrimidin-1-yl)methyl)pyridin-2-yl)carbamate], which inhibition at 10 µM (luciferase reporter ZIKV) is on record?
A: 68%

Q: And the viability at 3 days, 10 µM [1]?
A: 40%

Q: For Nc1cc(Cn2nc(COc3ccccc3)c3c(N)ncnc32)ccn1 [Compound 22, 1-((2-Aminopyridin-4-yl)methyl)-3-(phenoxymethyl)-1H-pyrazolo[3,4-d]pyrimidin-4-amine], which inhibition at 10 µM (luciferase reporter ZIKV) is on record?
A: 67%

Q: What about the viability at 3 days, 10 µM [1] of the same compound?
A: 36%

Q: With N#Cc1ccc(Cn2nc(COc3ccccc3)c3c(N)ncnc32)cc1 [Compound 15, 4-((4-Amino-3-(phenoxymethyl)-1H-pyrazolo[3,4-d]pyrimidin-1-yl)methyl)benzonitrile] as the compound, how does the inhibition at 10 µM (luciferase reporter ZIKV) read?
A: 37%

Q: What about the viability at 3 days, 10 µM [1] of the same compound?
A: 99%

Q: Which inhibition at 10 µM (luciferase reporter ZIKV) does the source give for Nc1ncnc2c1c(COc1ccccc1Cl)nn2Cc1ccc([N+](=O)[O-])cc1 [Compound 29, 3-((2-Chlorophenoxy)methyl)-1-(4-nitrobenzyl)-1H-pyrazolo[3,4-d]pyrimidin-4-amine] here?
A: 34%

Q: What about the viability at 3 days, 10 µM [1] of the same compound?
A: 94%

Q: What does the source list for Nc1ccc(Cn2nc(COc3ccccc3)c3c(N)ncnc32)cc1 [Compound 12, 1-(4-Aminobenzyl)-3-(phenoxymethyl)-1H-pyrazolo[3,4-d]pyrimidin-4-pmine]?
A: inhibition at 10 µM (luciferase reporter ZIKV): 0%; viability at 3 days, 10 µM [1]: 95%

Q: With COC(=O)c1ccccc1Cn1nc(COc2ccccc2)c2c(N)ncnc21 [Compound 16, Methyl 2-((4-Amino-3-(phenoxymethyl)-1H-pyrazolo[3,4-d]pyrimidin-1-yl)methyl)benzoate] as the compound, how does the inhibition at 10 µM (luciferase reporter ZIKV) read?
A: 0%

Q: And the viability at 3 days, 10 µM [1]?
A: 95%

Q: What does the source list for COC(=O)c1ccc(Cn2nc(COc3ccccc3)c3c(N)ncnc32)cc1 [Compound 18, Methyl 4-((4-amino-3-(phenoxymethyl)-1H-pyrazolo[3,4-d]pyrimidin-1-yl)methyl)benzoate]?
A: inhibition at 10 µM (luciferase reporter ZIKV): 6%; viability at 3 days, 10 µM [1]: 95%

Q: What does the source list for Nc1ncnc2c1c(COc1ccccc1)nn2Cc1cccc([N+](=O)[O-])c1 [Compound 9, 1-(3-Nitrobenzyl)-3-(phenoxymethyl)-1H-pyrazolo[3,4-d]pyrimidin-4-amine]?
A: inhibition at 10 µM (luciferase reporter ZIKV): 90%; viability at 3 days, 10 µM [1]: 37%

Q: Which results are given for CC(C)(C)OC(=O)Nc1cc(Cn2nc(COc3ccccc3)c3c(N)ncnc32)ccn1 [Compound 24, Tert-Butyl (4-((4-Amino-3-(phenoxymethyl)-1H-pyrazolo[3,4-d]pyrimidin-1-yl)methyl)pyridin-2-yl)carbamate]?
A: inhibition at 10 µM (luciferase reporter ZIKV): 62%; viability at 3 days, 10 µM [1]: 36%

Q: What does the source list for Nc1cccc(Cn2nc(COc3ccccc3)c3c(N)ncnc32)c1 [Compound 11, 1-(3-Aminobenzyl)-3-(phenoxymethyl)-1H-pyrazolo[3,4-d]pyrimidin-4-amine]?
A: inhibition at 10 µM (luciferase reporter ZIKV): 0%; viability at 3 days, 10 µM [1]: 89%
